Data from patent US7777038B2, “Carbostyril compound” (Otsuka Pharmaceutical Co., Ltd., priority 2004, dated 2010).

Tests used:
[1] = test system: acetic acid-induced gastric ulcers; experiment: Healing effects on rat models with acetic acid-induced gastric ulcers; assay type: in vivo; conditions: oral, once a day for 8 days, dose 10 mg/kg, ulcerated area vs vehicle (0.5% CMC)
Experimental: Healing Effects on Rat Models with Acetic Acid-Induced Gastric Ulcers
(1) Production of Gastric Ulcer by Acetic Acid
Rats were fasted from the previous day. A celiotomy was done in each rat under ether anesthesia, and the stomach was exteriorized. Subsequently, 20 μL of a 30% acetic acid solution was injected into the submucosa at the junction of the body of the glandular stomach and the pyloric antrum using a disposable syringe to produce a gastric ulcer.
(2) Test Compound Administration
Each test compound was suspended in a 0.5% carboxymethylcelullose (CMC) solution at concentrations of 0.75 or 2.5 mg/ml. The rats were orally administrated once a day for 8 days starting with the forth day from operation at doses of 3 or 10 mg/kg. A gastric tube and a syringe were used for the oral administration. […]
On the next day the vehicle and the test compound were finally administrated to the rats, the rats were sacrificed by exsanguination under anesthesia with ether, and each stomach was removed. The removed stomachs were fixed in 1% formalin for 15 minutes, dissected along the greater curvature of stomach to expose the ulcer, and the ulcerated area was measured. […]
The ulcerated area was measured under a stereo microscope (10×) with an ocular micrometer (1 mm^2/grid), and the percentage healing ratio was calculated. The percentage healing ratio was calculated by the following formula.

[2] = test system: human Trefoil Factor 2 (hTFF2) gene; experiment: hTFF2 gene reporter assay (luciferase) using pGL3-hTFF2pro•pWL-neo/MKN-45 #6-2 cell line; assay type: cell-based; conditions: test compound concentration 10^−6 M; 24 hours culture; luciferase activity as control % of dimethylsulfoxide-added wells (100%)
Experimental: Transcription promoting activity on human Trefoil Factor 2 (hTFF2) gene of test compounds was evaluated by means of an hTFF2 gene reporter assay.
(1) Preparation of hTFF2 Gene Reporter Vector pGL3-hTFF2pro
DNA was extracted from HeLa cells (CCL-2, DAINIPPON PHARMACEUTICAL CO., LTD.) using a deoxyribonucleic acid (DNA) extraction kit (DNeasy™ Tissue Kit, manufactured by QIAGEN). The hTFF2 promoter region was amplified using the extracted DNA as a template by means of the polymerase chain reaction (PCR). The oligomers 5′-[…]-3′ and 5′-[…]-3′ were selected as PCR primers to be amplified, based on the report by Beck et al. (Beck S., Sommer P., Blin N., Gott P., 5′-flanking motifs control cell-specific expression of trefoil factor genes (TFF), Int. J. Mol. Med. 2(3), 353-361 (1998)). Platinum® Pfx DNA polymerase was used as DNA polymerase. The PCR was performed under the conditions of denaturing for 30 seconds at 95° C., annealing for 30 seconds at 55° C. and extending for 75 seconds at 68° C., and the procedures were repeated for 32 cycles.
The PCR products were separated and purified by 1% agarose gel electrophoresis, and cloned to a pCR-BluntII-TOPO vector attached to a cloning kit (Zero Blunt® TOPO® PCR Cloning Kit, manufactured by Invitrogen Corporation). The produced plasmid pCR-Blunt-TFF2pro was introduced into E. coli for transformation (TOP 10 Ultracomp™ Cells, manufactured by Invitrogen Corporation), and transformant strain pCR-Blunt-TFF2pro/TOP10 was selectively cultured in LB agar medium containing 30 μg/ml of Zeocin (Zeocin, manufactured by Invitrogen Corporation). The pCR-Blunt-TFF2pro/TOP10 was subjected to shaking culture in 50 ml of LB medium containing 30 μg/ml of Zeocin at 37° C. over night, and a plasmid was prepared using a plasmid preparation kit (Concert™ High Purity Midiprep System, manufactured by GIBCO BRL).
The nucleotide sequence of the PCR product cloned to the plasmid pCR-Blunt-TFF2pro was determined. The determined nucleotide sequence was compared with the counterpart of hTFF2 promoter region reported in a gene bank (GenBank accession AB038162). The nucleotide sequence of the MluI-HindIII region cloned in pCR-Blunt-TFF2pro was identical to GenBank accession AB038162 (FIG. 1).
The underlined portions indicate the recognition sequence (ACGCGT) of the restriction enzyme MluI and the recognition sequence (AAGCTT) of the restriction enzyme HindIII. The nucleotide sequences of the MluI-HindIII region are identical between the hTFF2 promoter region reported in GenBank and the PCR product cloned to the plasmid pCR-Blunt-TFF2pro. […]

melting point [°C] | Structure (SMILES) | Healing Ratio (%) [1] [%] | TFF2 Production Promoting Activity [2]
254 to 255 | COc1ccc(CC2SC(=O)NC2=O)c2ccc(=O)n(C)c12 (stereo not drawn) [Example 1, 5-(8-methoxy-1-methyl-2-oxo-1,2-dihydroquinolin-5-ylmethyl)thiazolidine-2,4-dione] | >20 | 
193.1 to 195.5 | COC(=O)c1ccc(CN2C(=O)CCc3c(CC4SC(=O)NC4=O)ccc(OC)c32)cc1 (stereo not drawn) [Example 25, 5-[8-methoxy-1-(4-methoxycarbonylbenzyl)-2-oxo-1,2,3,4-tetrahydroquinolin-5-ylmethyl]thiazolidine-2,4-dione] |  | ++ (a TFF2 production promoting activity of 1000% or higher at a test compound concentration of 10^−6 M)
139.5 to 141 | COc1ccc(CC2SC(=S)NC2=O)c2c1N(CCC(C)C)C(=O)CC2 (stereo not drawn) [Example 1315, 8-methoxy-1-(3-methylbutyl)-5-(4-oxo-2-thioxothiazolidin-5-ylmethyl)-3,4-dihydro-1H-quinolin-2-one] |  | ++ (a TFF2 production promoting activity of 1000% or higher at a test compound concentration of 10^−6 M)
